Results reported in PubChem BioAssay AID179 (DTP/NCI, 2004).
Calls of active or inactive are those of the source.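 The calls were made as follows: active = compounds giving half or more protection of infected cells from virus-caused growth loss, again on retest; inactive = the rest.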 Where a SMILES comes first, the peptide text is derived from it.

System: CEM cells HIV-1 protection, formazan growth assay
Experiment: NCI AIDS Antiviral Assay
Conditions: for IC50: measured here: growth of uninfected CEM cells
Outline: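 Protection of CEM cells against HIV-1 was scored from cell growth (soluble formazan) across five concentrations, with parallel uninfected cells. Lack of protection may reflect toxicity.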

SMILES	EC50 [µM]	IC50 [µM]	outcome
CC12NC(=C(C#N)C#N)C(C#N)=C3NC(N)=C(C#N)C(=C31)Oc1ccccc12 (centres undefined)	> 200	5.89	–
Cc1ccc(NC(=O)CCC(=O)C2CC(=O)CC/C2=N\NC(=O)c2cc3ccccc3cc2O)cc1C (centres undefined)	> 363	12.9	–
OCC(O)C(O)C(O)C1SC(c2ccccc2)=NN1c1ccccc1 (centres undefined)	–	–	inactive
Cc1cc(=O)oc2cc3c(cc12)Oc1ccccc1O3	> 25.7	> 25.7	–
CCOC(=O)/C(Cl)=C1\SN(C(=O)OCC)N=C1C	> 102	10.7	–
Cc1csc2nc(-c3ccccc3)c(/C=N/NC(=O)CN(C)C)n12	–	–	inactive
CSc1ccc(NC(=O)C2c3[nH]c4ccccc4c3C3CCC(C(C)(C)C)CC3C2C(=O)O)cc1 (centres undefined)	> 7.76	> 7.76	–
C[C@@]12C[C@@H](c3ccccc3O1)N1CCCCSC1=N2	> 200	> 200	–
CC1(C)CCCCCC(O)C(O)CCC(C)(C)C1=O (centres undefined)	> 200	> 200	–
CCC(C)C(NC(=O)C(CCCN=C(N)N)NC(=O)C(CC(N)=O)NC(=O)C(Cc1ccc(O)cc1)NC(=O)C(N)CC(C)C)C(=O)NC(C(=O)NC(CC(C)C)C(=O)NC(CCCN=C(N)N)C(=O)NC(Cc1ccc(O)cc1)C(=O)O)C(C)CC (centres undefined) (H-LYNRIILRY-OH; configuration not given here)	> 40.7	23.4	–
CNC(=S)NNC1=NCCCCN1	> 200	110	–
N#CC(F)(F)C(F)(F)C(F)(F)C(F)(F)C(F)(F)C(F)(F)C(F)(F)F	> 200	> 200	–
CCCCOC(=O)NC(=O)c1cc2cc(Cl)cc(Cl)c2oc1=O	> 13.8	> 13.8	–
CC1(CO)C(O)CCC2(C)C1C(O)CC1CC3CC12CCC3(O)CO (centres undefined)	> 708	138	–
CC(C)c1c(Cc2ccccc2)n(COCCC[Se]c2ccccc2)c(=O)[nH]c1=O	0.0501	1.38	–
Cc1ccc(F)cc1NC(=O)O/N=C(\Cl)C(C)C	> 20	3.8	–
Cc1ccc(S(=O)(=O)N2CCCN(S(=O)(=O)c3ccc(C)cc3)CCSCCCSCC2)cc1	> 200	31.6	–
N#C/C(=C\NC(=S)N=Nc1c(O)[nH]c2ccccc12)c1nc2ccccc2s1	> 200	> 200	–
Cn1c(NNc2ccccc2)cc(=O)[nH]c1=O	> 200	28.8	–
CC(=O)C(N=Nc1nc2ccccc2[nH]1)C(C)=O	> 200	20	–
CC(=O)NC1C(CO)OC(n2cnc([N+](=O)[O-])c2C(N)=O)C1O (centres undefined)	> 200	> 200	–
CC(=O)[CH-]C(C)=O.CC(=O)[CH-]C(C)=O.[CH2-]CCCCCCC.[CH2-]CCCCCCC.[Sn+4]	> 47.9	> 47.9	–

SMILES	EC50 [µM]	IC50 [µM]	outcome
Cc1ccc(N=NC(=O)NNc2ccc(C)c([N+](=O)[O-])c2)cc1[N+](=O)[O-]	> 200	63.1	–
N#C/C(=C\c1cc(Cl)cc(Cl)c1O)c1ccc([N+](=O)[O-])cc1	> 100	14.1	–
O=C(O)c1cc2cccc(O)c2cc1O	> 200	> 200	–
COc1ccc(/C(C#N)=C/c2cccc(OC)c2OC)cc1	> 200	28.2	–
COC(=O)CC1NC(=O)C1C1(C)OCCO1 (centres undefined)	> 251	> 251	–
NC1=NC(OCC2(CO)CCC2)C=C(NCC2(CO)CCC2)N1 (centres undefined)	> 200	> 100	–
COC(=O)C1=C2CCC(=O)[C@@]2(C)CC(C)=C(C)C1	–	–	inactive
CC1(C)C2CC(O)C1(C)CC2=O (centres undefined)	> 200	170	–
CCCCCCCCCCCCCCC(F)C(=O)OCC1OC(CO)(OC2OC(CO)C(O)C(O)C2O)C(O)C1O (centres undefined)	> 200	95.5	–
Cc1ccc2c(c1CCCC(C)(C)O)C(=O)C(=O)C(C(C)C)=C2O	> 380	132	–
Cc1cn(C2CC(N=[N+]=[N-])C(COC(=O)CCCCCCCCCCN=[N+]=[N-])O2)c(=O)[nH]c1=O (centres undefined)	0.0389	28.8	–
CC(C)(C)C(=O)/C=C/c1ccccc1Cl	> 23.4	> 23.4	–
CCCCCCc1cc2cc(-c3csc(-c4ccc(OC)cc4)n3)c(=O)oc2cc1O	> 200	9.12	–
CO[C@@H]1[C@H](O)c2coc3c2[C@@](C)(c2ccc4c(c2C3=O)CCC4=O)[C@@H]1O	> 200	28.8	–
COc1cc2c(cc1O)C(Cc1ccc(Oc3cc(CC4c5cc(O)c(OC)cc5CCN4C)ccc3O)cc1)N(C)CC2 (centres undefined)	–	–	inactive
CC[C@H](NC(=O)OC(C)(C)C)C(=O)NCP(=O)(OCc1ccc([N+](=O)[O-])cc1)OCc1ccc([N+](=O)[O-])cc1	> 200	33.9	–
O=C(O)c1cc(C(=O)O)c(C(=O)O)c(C(=O)O)c1C(=O)O	–	–	inactive
C[N+](C)(C)CC(=O)N/N=C(\Cc1nc2ccc([N+](=O)[O-])cc2[nH]c1=O)C(=O)Nc1nc2ccc([N+](=O)[O-])cc2s1	> 42.7	> 42.7	–
Cn1cnc([N+](=O)[O-])c1Sc1ccccn1	> 1050	42.7	–
C[C@@]12CCC[C@@H](OC(=O)c3ccc(Br)cc3)[C@@H](C1)C(=O)CC2	–	–	inactive
COC(=O)CCC(=O)c1ccc2c(c1)CC1(C2)Cc2ccc3c(c2C1)CCCC3=O (centres undefined)	> 200	8.51	–
c1ccc(Nc2nn3c(CCCCCCCCc4nnc5sc(Nc6ccccc6)nn45)nnc3s2)cc1	> 200	39.8	–

SMILES	EC50 [µM]	IC50 [µM]	outcome
Cc1cccc(C)c1OC(F)(F)c1nc2ccccc2o1	> 200	30.2	–
COc1ccc2c(c1)c1c3n2CCNN=C3CCC1	> 74.1	> 74.1	–
COc1c2occc2c(N=Cc2ccc([N+](=O)[O-])cc2)c2ccc(=O)oc12	> 34.7	> 34.7	–
CN(C)c1ccc(N=O)cc1	> 2	1.12	–
Cc1nc2ccccc2c(=O)n1NC(=S)Nc1ccccc1	> 115	107	–
CN(Cc1cnc2nc(N)nc(N)c2n1)c1ccc(C(=O)NC(CCC(=O)NCCC(P(=O)(O)O)P(=O)(O)O)C(=O)O)cc1 (centres undefined)	> 200	3.63	–
CN1CCN(c2cc3c(cc2F)c(=O)c(C(=O)O)cn3C2CC2)CC1CC#N (centres undefined)	> 200	148	–
COc1ccc2nc3c([N+](=O)[O-])ccc(NCCCN(C)C)c3c(NCCCN(C)C)c2c1	> 200	0.229	–
CC(=O)OC12c3ccccc3C(c3ccccc31)C1C(=O)N(N=C(C)C)C(=O)C12 (centres undefined)	> 200	> 200	–
O=c1c2ccccc2oc2cc([N+](=O)[O-])cc([N+](=O)[O-])c12	> 5.01	4.17	–
CN(C)c1ccc(-c2ccc(N(C)C)c3n[se]nc23)c2n[se]nc12	> 200	> 200	–
Cc1nc2c(=O)n(C)ncc2[nH]1	> 200	> 200	–
COC(=O)C(C(=O)Cc1ccccc1[N+](=O)[O-])C(=O)OC	> 251	102	–
CN(Cc1ccccc1)c1cc(=O)n(C)c(=O)[nH]1	> 200	> 200	–
O=c1c(O)c(-c2cc(O)c(O)cc2O)oc2cc(O)c(C3OC(CO)C(O)C(O)C3O)c(O)c12 (centres undefined)	> 200	138	–
COc1ccccc1NC(=O)C1=C(C)NC(C)=C(C(=O)Nc2ccccc2OC)C1c1ccccc1Cl	–	–	inactive
O=S(=O)(O)SCCNCCCCC1CCCCC1	> 200	10.2	–
O=C1C(=Cc2ccc(Cl)cc2)C(=O)c2ccccc21	> 17.4	> 17.4	–
CC(C)N(C(C)C)P(OCCC#N)OC1CC(n2cnc3c(=O)[nH]cnc32)OC1COC(=O)NCCCCCCNC(=O)OC(C)(C)c1ccc(-c2ccccc2)cc1 (centres undefined)	> 8.71	> 8.71	–
CC1(C)CC(=O)C2=C(C1)Nn1c(nnc1C(F)(F)F)S2	> 813	355	–
CCCNC(=O)N(C(C)(C)C)S(=O)(=O)c1ccc(Cl)cc1	–	–	inactive
COC1CC(C)C(OC)c2cc(O)cc(c2O)NC(=O)/C(C)=C/C=C\C(C)C(OC(N)=O)/C(C)=C\C(C)C1OC (centres undefined)	> 170	0.676	–

SMILES	EC50 [µM]	IC50 [µM]	outcome
N#Cc1c(N)c(C(=O)Nc2ccccc2)n2c1CCC2	> 200	> 200	–
COc1cc(Cc2nnc(N)[nH]c2=O)cc(OC)c1OC	> 17.8	> 17.8	–
COC=C1C(=O)OC(C)(C)OC1=O	28.8	107	–
CCCCN[C@H]1C2C3CC4C5CC(C42)C1(C)C53 (some centres undefined)	> 933	380	–
COC(=O)c1ccccc1/C=C1\Cc2cc(C)cc(C)c2C1=O	–	–	inactive
COc1ccc(-c2nc3c(=O)n(C)c(=O)nc-3n(C)n2)cc1OC	> 20	0.447	–
O=[N+]([O-])C(C=Nc1ccccc1)C=Nc1ccccc1 (centres undefined)	> 200	107	–
O=C1CC(c2ccc(Cl)cc2)NC(=O)N1CCN1CCCC1 (centres undefined)	> 200	> 200	–
CCN=C(N)CSS(=O)(=O)O	> 200	> 200	–
COc1ccc(-c2onc(-c3ccc([N+](=O)[O-])cc3)c2C2=NCCN2)cc1	> 12.9	> 12.9	–
O=c1c(SCc2ccccc2)c(N2CCCCC2)cnn1-c1ccccc1	> 69.2	> 69.2	–
C(=C\c1ccnc2ccccc12)/c1ccnc2ccccc12	> 13.2	> 13.2	–
Nc1ncnc2c1ncn2C1CCCCC(O)C1 (centres undefined)	–	–	inactive
CC1=NN(c2ccccc2)C(=O)C1=C1SCCCS1	> 46.8	> 46.8	–
CC(C)(C)OC(=O)N1CCc2c(n(C/C=C/c3ccccc3)[nH]c2=O)C1	> 200	19.1	–
COc1ccc(CC2C(=O)NC(C)C(=O)N(C)C3Cc4ccc(cc4)Oc4cc(ccc4O)CC(C(=O)NC(C)C(=O)NC(C)C(=O)N2C)N(C)C3=O)cc1 (centres undefined)	> 0.2	0.0631	–
COC(=O)C(C(=O)C(=O)Nc1ccc(N)cc1[N+](=O)[O-])c1nc2ccc(Cl)cc2[nH]c1=O (centres undefined)	> 40.7	30.9	–
COc1ccc(C(C#N)NC23CC4CC(CC(C4)C2)C3)cc1 (centres undefined)	–	–	inactive
CCOC(=O)c1nc(-c2ccccc2)c(-c2ccccc2)c(-c2ccccc2)c1C	> 5.13	> 5.13	–
